Results as given in PMC11062922 (Nature Chemical Biology, 2023).

Experiments:
GSK3A = target: T1, GSK3A (Homo sapiens, UniProt P49840); assay: Kinobeads full dose-response competition binding: GSK3A; conditions: Gene Name GSK3A; for Relative Intensity 0.3nM: 0.3nM compound; for Relative Intensity 0.3nM / Relative Intensity 1nM / Relative Intensity 3nM / Relative Intensity 10nM / Relative Intensity 30nM / Relative Intensity 100nM / Relative Intensity 300nM / Relative Intensity 1000nM: DMSO = 1; for Relative Intensity 1nM: 1nM compound; for Relative Intensity 3nM: 3nM compound; for Relative Intensity 10nM: 10nM compound; for Relative Intensity 30nM: 30nM compound; for Relative Intensity 100nM: 100nM compound; for Relative Intensity 300nM: 300nM compound; for Relative Intensity 1000nM: 1000nM compound; for Kd: EC50 with Correction, read-out: apparent Kd; for Kd / EC50: doses in nM; for EC50: eight-dose curve fit
T1 construct: endogenous in cells

ICK = assay: Kinobeads competition binding: ICK; set-up: species or system human; conditions: target ICK
HCK = target: T2, HCK (Homo sapiens, UniProt P08631); assay: Kinobeads competition binding: HCK; conditions: target HCK
T2 construct: endogenous in cells
Excerpt: Supplement 41589_2023_1459_MOESM4_ESM.xlsx, sheet "CATDS matrix" | column: HCK

MAPK11 = assay: Kinobeads competition binding: MAPK11; set-up: species or system human; conditions: target MAPK11
MST1R = assay: Kinobeads competition binding: MST1R; set-up: species or system human; conditions: target MST1R;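 also: selectivity score: engagement of this protein divided by summed engagement of all targets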
MET = target: T3, MET (Homo sapiens, UniProt P08581); assay: Kinobeads two-dose competition binding: MET; conditions: target MET
T3 construct: endogenous in cells

LATS1 = target: T4, LATS1 (Homo sapiens, UniProt O95835); assay: Kinobeads competition binding: LATS1; conditions: target LATS1
T4 construct: endogenous in cells
T4 sequence (O95835 1-1130): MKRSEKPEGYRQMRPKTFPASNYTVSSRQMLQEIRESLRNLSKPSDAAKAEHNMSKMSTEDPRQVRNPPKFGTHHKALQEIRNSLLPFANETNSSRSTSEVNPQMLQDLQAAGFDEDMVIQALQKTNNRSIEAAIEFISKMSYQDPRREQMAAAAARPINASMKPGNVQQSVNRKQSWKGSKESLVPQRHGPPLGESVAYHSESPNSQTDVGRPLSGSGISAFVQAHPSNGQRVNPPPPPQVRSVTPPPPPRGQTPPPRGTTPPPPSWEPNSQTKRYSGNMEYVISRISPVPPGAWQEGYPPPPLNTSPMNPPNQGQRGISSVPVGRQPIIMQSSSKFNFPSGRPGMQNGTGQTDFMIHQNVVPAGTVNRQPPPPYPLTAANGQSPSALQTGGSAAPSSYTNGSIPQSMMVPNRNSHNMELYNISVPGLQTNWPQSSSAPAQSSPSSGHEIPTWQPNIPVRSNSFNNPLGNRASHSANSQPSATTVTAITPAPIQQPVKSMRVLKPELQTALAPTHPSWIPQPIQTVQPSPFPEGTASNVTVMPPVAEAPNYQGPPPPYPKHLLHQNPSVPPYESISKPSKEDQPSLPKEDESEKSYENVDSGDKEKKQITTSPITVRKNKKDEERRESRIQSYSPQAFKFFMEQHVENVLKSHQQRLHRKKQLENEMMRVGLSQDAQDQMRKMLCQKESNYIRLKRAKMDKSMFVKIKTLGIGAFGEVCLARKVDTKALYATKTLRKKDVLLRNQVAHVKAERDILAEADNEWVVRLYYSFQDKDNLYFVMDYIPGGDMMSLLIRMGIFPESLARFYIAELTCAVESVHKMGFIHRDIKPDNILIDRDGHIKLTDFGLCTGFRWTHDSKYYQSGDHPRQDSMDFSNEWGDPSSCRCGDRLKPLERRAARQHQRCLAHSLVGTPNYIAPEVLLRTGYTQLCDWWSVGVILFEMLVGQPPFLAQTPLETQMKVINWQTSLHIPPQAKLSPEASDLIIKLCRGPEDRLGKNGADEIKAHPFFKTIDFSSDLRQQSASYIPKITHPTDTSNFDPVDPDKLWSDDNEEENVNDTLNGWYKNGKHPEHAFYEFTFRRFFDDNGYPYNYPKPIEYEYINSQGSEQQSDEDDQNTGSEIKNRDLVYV
Excerpt: Supplement 41589_2023_1459_MOESM4_ESM.xlsx, sheet "CATDS matrix" | column: LATS1

DYRK1A = target: T5, DYRK1A (Homo sapiens, UniProt Q13627); assay: Kinobeads competition binding: DYRK1A; conditions: target DYRK1A
T5 construct: endogenous in cells

ERCC2 = assay: Kinobeads competition binding: ERCC2; set-up: species or system human; conditions: target ERCC2
CSNK1G3 = target: T6, CSNK1G3 (Homo sapiens, UniProt Q9Y6M4); assay: Kinobeads competition binding: CSNK1G3; conditions: target CSNK1G3;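 also: share of total target engagement due to this protein at one drug concentration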
T6 construct: endogenous in cells
Excerpt: Supplement 41589_2023_1459_MOESM4_ESM.xlsx, sheet "CATDS matrix" | column: CSNK1G3

MAPK1 = assay: Kinobeads competition binding: MAPK1; set-up: species or system human; conditions: target MAPK1
MAP3K3 = assay: Kinobeads competition binding: MAP3K3; set-up: species or system human; conditions: target MAP3K3
DNAJA1 = assay: Kinobeads competition binding: DNAJA1; set-up: species or system human; conditions: target DNAJA1;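 also: share of total target engagement due to this protein at one drug concentration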
PIK3CG = target: T7, PIK3CG (Homo sapiens, UniProt P48736); assay: Kinobeads competition binding: PIK3CG; conditions: target PIK3CG;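 also: selectivity score: engagement of this protein divided by summed engagement of all targets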
T7 construct: endogenous in cells
Excerpt: Supplement 41589_2023_1459_MOESM4_ESM.xlsx, sheet "CATDS matrix" | column: PIK3CG

PIK3C3 = target: T8, PIK3C3 (Homo sapiens, UniProt Q8NEB9); assay: Kinobeads competition binding: PIK3C3; conditions: target PIK3C3
T8 construct: a mixture of lysates from five cancer cell lines; endogenous in cells

CDC42BPA = assay: Kinobeads competition binding: CDC42BPA; set-up: species or system human; conditions: target CDC42BPA;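 also: selectivity score: engagement of this protein divided by summed engagement of all targets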
NEK3 = assay: Kinobeads competition binding: NEK3; set-up: species or system human; conditions: target NEK3
CAMK2G = target: T9, CAMK2G (Homo sapiens, UniProt Q13555); assay: Kinobeads competition binding: CAMK2G; conditions: target CAMK2G
T9 construct: endogenous in cells

PIM1 = target: T10, PIM1 (Homo sapiens, UniProt P11309); assay: Kinobeads competition binding: PIM1; conditions: target PIM1
T10 construct: a mixture of lysates from five cancer cell lines; endogenous in cells

IGF1R = assay: Kinobeads competition binding: IGF1R; set-up: species or system human; conditions: target IGF1R;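 also: selectivity score: engagement of this protein divided by summed engagement of all targets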

| Compound | CATDS (ICK) | CATDS (HCK) | CATDS (MAPK11) | CATDS (MST1R) | CATDS (MET) | CATDS (LATS1) | CATDS (DYRK1A) | CATDS (ERCC2) | CATDS (CSNK1G3) | CATDS (MAPK1) | CATDS (MAP3K3) | CATDS (DNAJA1) | CATDS (PIK3CG) | CATDS (PIK3C3) | CATDS (CDC42BPA) | CATDS (NEK3) | CATDS (CAMK2G) | CATDS (PIM1) | CATDS (IGF1R) | other results |
| --- | --- | --- | --- | --- | --- | --- | --- | --- | --- | --- | --- | --- | --- | --- | --- | --- | --- | --- | --- | --- |
| CCn1c(-c2nonc2N)nc2c(C#CC(C)(C)O)nc(OCCNC)cc21 [GSK949675A] | – | – | – | – | – | – | – | – | – | – | – | – | – | – | – | – | – | – | – | Relative Intensity 0.3nM (GSK3A): 1.008; Relative Intensity 1nM (GSK3A): 1.091; Relative Intensity 3nM (GSK3A): 1.095; Relative Intensity 10nM (GSK3A): 0.9753; Relative Intensity 30nM (GSK3A): 1.009; Relative Intensity 100nM (GSK3A): 0.7508; Relative Intensity 300nM (GSK3A): 0.4472; Relative Intensity 1000nM (GSK3A): 0.237; Kd (GSK3A): 104 nM; EC50 (GSK3A): 167 nM |
| CCc1cc2c(cc1N1CCC(N3CCOCC3)CC1)C(C)(C)c1[nH]c3cc(C#N)ccc3c1C2=O [Alectinib] | 0 | 0 | 0 | 0 | 0 | 0 | 0 | 0 | 0 | 0 | 0 | 0 | 0 | 0 | 0 | 0 | 0 | 0 | 0 | – |
| CCN1CCN(Cc2ccc(Nc3ncc(F)c(-c4cc(F)c5nc(C)n(C(C)C)c5c4)n3)nc2)CC1 [Abemaciclib] | 0 | 0 | 0 | 0 | 0 | 0 | – | 0 | 0 | 0 | 0 | 0 | 0 | 0 | 0 | 0 | 0.09397 | 0.03255 | 0 | – |
| Nc1ncnc2[nH]c(-c3ccccc3)nc12 [AH5015_KCGS] | 0 | 0 | 0 | 0 | 0 | 0 | 0 | 0.1122 | 0 | 0 | 0 | 0 | 0 | 0 | 0 | 0 | 0 | 0 | 0 | – |
| CCn1c(-c2nonc2N)nc2c(C#CC(C)(C)O)nc(OCCN)cc21 [GSK902056A] | – | – | – | – | – | – | – | – | – | – | – | – | – | – | – | – | – | – | – | Relative Intensity 0.3nM (GSK3A): 0.9894; Relative Intensity 1nM (GSK3A): 1.046; Relative Intensity 3nM (GSK3A): 1.057; Relative Intensity 10nM (GSK3A): 0.9554; Relative Intensity 30nM (GSK3A): 0.7994; Relative Intensity 100nM (GSK3A): 0.6557; Relative Intensity 300nM (GSK3A): 0.3972; Relative Intensity 1000nM (GSK3A): 0.1852; Kd (GSK3A): 164 nM; EC50 (GSK3A): 173 nM |
| N#CC1(c2ccc(NC(=O)c3cccnc3NCc3ccncc3)cc2)CCCC1 [Apatinib] | 0 | 0 | 0 | 0 | 0 | 0 | 0 | 0 | 0 | 0 | 0 | 0 | 0 | 0 | 0 | 0 | 0 | 0 | 0 | – |
| CN(C)C/C=C/C(=O)Nc1cc2c(Nc3ccc(F)c(Cl)c3)ncnc2cc1O[C@H]1CCOC1 [Afatinib] | – | 0 | – | – | 0 | 0 | – | 0 | 0 | – | – | 0 | 0 | – | – | – | – | – | – | – |
